Reference: patent publication US20150216167A1 (Heinrich Heine Universitat Dusseldorf, priority 2011, published 2015)

Experiments:
[1] = tested on: bile salt hydrolase; settings: cited from earlier work
[2] = tested on: pyruvate phosphate dikinase (PPDK); settings: cited from earlier work
[3] = tested on: PEP carboxylase; settings: Pairoba et al. (1996); cited from earlier work
[4] = target: T1, C4-PEPC (PEP carboxylase from F. trinervia) (Flaveria trinervia, UniProt P30694); experiment: Spectrophotometric coupled assay with malate dehydrogenase, purified PEP carboxylases; format: biochemical; settings: C4 (F. trinervia) versus C3 (F. pringlei) enzyme
T1 construct: histidine tag; made in house; host or cells: E. coli
T1 sequence (P30694 1-966): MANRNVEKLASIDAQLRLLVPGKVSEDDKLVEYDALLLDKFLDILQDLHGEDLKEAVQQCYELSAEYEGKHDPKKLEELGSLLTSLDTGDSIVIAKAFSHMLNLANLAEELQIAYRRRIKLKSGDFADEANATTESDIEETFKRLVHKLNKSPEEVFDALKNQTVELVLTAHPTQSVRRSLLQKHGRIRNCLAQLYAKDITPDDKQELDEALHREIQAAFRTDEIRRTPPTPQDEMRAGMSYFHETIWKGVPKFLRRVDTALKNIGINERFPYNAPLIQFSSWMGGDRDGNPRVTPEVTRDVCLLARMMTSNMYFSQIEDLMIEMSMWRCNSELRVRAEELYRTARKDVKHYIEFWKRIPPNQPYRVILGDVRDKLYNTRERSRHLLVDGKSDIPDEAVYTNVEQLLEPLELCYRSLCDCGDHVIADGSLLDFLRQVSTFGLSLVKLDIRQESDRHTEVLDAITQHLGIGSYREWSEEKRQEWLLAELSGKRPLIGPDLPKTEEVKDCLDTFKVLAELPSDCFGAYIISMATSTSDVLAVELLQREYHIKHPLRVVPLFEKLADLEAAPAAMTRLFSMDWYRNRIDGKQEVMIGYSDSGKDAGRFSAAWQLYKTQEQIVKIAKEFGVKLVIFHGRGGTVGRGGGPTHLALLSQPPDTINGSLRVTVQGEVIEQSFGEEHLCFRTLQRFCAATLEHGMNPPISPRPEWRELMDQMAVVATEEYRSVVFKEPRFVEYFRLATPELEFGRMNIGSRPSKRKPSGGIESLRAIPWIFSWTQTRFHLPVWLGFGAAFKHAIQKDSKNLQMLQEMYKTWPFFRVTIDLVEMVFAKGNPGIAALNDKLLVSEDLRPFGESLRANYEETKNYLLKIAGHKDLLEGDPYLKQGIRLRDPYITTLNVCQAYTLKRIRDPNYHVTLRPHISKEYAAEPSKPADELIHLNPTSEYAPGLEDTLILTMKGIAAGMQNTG
From the text: (§1) Inhibition of purified PEP carboxylases from F. pringlei and F. trinervia by compounds selected from the VDS was monitored by a spectrophotometric coupled assay with malate dehydrogenase which reduces the oxaloacetate formed by PEP carboxylase to malate. The simultaneous oxidation of NADH is followed at 340 nm with standard optical equipment. The concentration of the inhibitors selected from the VDS was varied in the coupled assay to determine the half maximal inhibitory concentration (IC50).
as §1, with “(1050).” for “(IC50).”

[5] = high clog values; cited from earlier work

| Compound | inhibition of PEP carboxylase from C4 plant Amaranthus viridis [3] | other results |
| --- | --- | --- |
| C/C=C(\C)c1cc(O)c(C)c2c1Oc1cc(O)cc(C)c1C(=O)O2 [unguinol] |  | inhibits the enzyme bile salt hydrolase [1]: inhibits; selective inhibitors of PPDK ([2]; PPDK from C4 plants maize, millet and proso millet): selective inhibitors; IC50 ([2]; isolated enzyme, read-out: half maximal inhibitory concentration (1050)): 40 µM |
| O=c1c(O)c(-c2ccc(O)cc2)oc2cc(O)cc(O)c12 [kaempferol] | inhibited |  |
| Nc1nc2ncc(CNc3ccc(C(=O)N[C@@H](CCC(=O)O)C(=O)O)cc3)nc2c(=O)[nH]1 [compound 4, Folic Acid] |  | Selective Inhibition of a C4-PEPC ([4]; measured at 0.025 mM, FIG. 3): Selective Inhibition |
| baicalein/baicalin | inhibited |  |
| O=c1c(O)c(-c2ccc(O)c(O)c2)oc2cc(O)cc(O)c12 [quercetin] | inhibited |  |
| O=c1c(O)c(-c2cc(O)c(O)c(O)c2)oc2cc(O)cc(O)c12 [myricetin] | inhibited |  |
| O=c1c(O)c(-c2ccc(O)c(O)c2)oc2cc(O)ccc12 [fisetin] | inhibited |  |
| O=c1c(O)c(-c2ccc(O)cc2O)oc2cc(O)cc(O)c12 [morin] | inhibited |  |
| C=C1CCC[C@H]2[C@](C)(CC3=C(O)C(=O)C=C(OC)C3=O)[C@@H](C)CC[C@]12C [ilimaquinone] |  | solubility in water [5]: low solubility in water |
| Oc1cc(O)c2c(c1)O[C@H](c1ccc(O)c(O)c1)[C@@H](O)C2 [compound 1, (2R,3S)-2-(3,4-dihydroxyphenyl)-3,4-dihydro-2H-chromene-3,5,7-triol] |  | Selective Inhibition of a C4-PEPC ([4]; measured at 50 micromolar and 500 micromolar, FIG. 2): Selective Inhibition |
